Data set [1] is described as follows: In vitro plasma protein binding (PPB). In kind it is in vitro ADME. The settings on record: percentage of free/unbound compound.
Another data set concerns the target SOS1 (Homo sapiens (Human), UniProt Q07889). Nature of the data set: Ras-SOS interaction assay (HTRF). The data set is classed as biochemical. In general terms: Time-resolved FRET reads energy transfer from a long-lived donor to a nearby acceptor.
For data set [2], the system named is NCI-H1975 cells (EGFR T790M L858R). The data set is described as follows: EGFR-SOS cellular inhibition assay (CellTiter-Glo, 3D). The data set is classed as cell-based.
The subject of data set [3] is MIA PaCa-2 cells (K-Ras G12C). Nature of the data set: Ras-SOS cellular growth inhibition assay (CellTiter-Glo, 3D). In kind it is cell-based. The method, boiled down:
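Growth read by CellTiter-Glo luminescence about 5 days after dosing with 3-fold dilutions (9 points), added one day post-seeding. Cells: MIA PaCa-2, 3D culture on ultra-low-attachment surface, medium DMEM/Ham's F12 plus 10% FCS and 2.5% horse serum; IC50 by four-parameter fit.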
(ATP-based viability assays read luminescence as a measure of living cells.)

Setting [4] is: K-RasG13D utilized, read-out: IC50 inhibition of SOS.
The mark [5] stands for this setting: K-RasG13D, read-out: IC50 value against SOS1.
Setting [6] is: Homo sapiens, 120 h, NCI-H1975, 3D proliferation, about 5 days, read-out: Bio-Cell-Prolif-3D (H1975 IC50).
[7] abbreviates: Homo sapiens, NCI-H1975, EGFR T790M L858R, read-out: IC50 in inhibiting growth of NCI-H1975 cell line.
Where [8] appears, read: Homo sapiens, MIA PaCa-2, 120 h, MIA PaCa-2, 3D proliferation, about 5 days, read-out: Bio-Cell-Prolif-3D (MiaPaca2 IC50).
Where [9] appears, read: Homo sapiens, MIA PaCa-2, MIA PaCa-2, read-out: IC50 in inhibiting MIA PaCa-2 cell growth.

Like-named read-outs stand apart in the source and are kept apart here.

Chain of SOS1 (Q07889 564-1049): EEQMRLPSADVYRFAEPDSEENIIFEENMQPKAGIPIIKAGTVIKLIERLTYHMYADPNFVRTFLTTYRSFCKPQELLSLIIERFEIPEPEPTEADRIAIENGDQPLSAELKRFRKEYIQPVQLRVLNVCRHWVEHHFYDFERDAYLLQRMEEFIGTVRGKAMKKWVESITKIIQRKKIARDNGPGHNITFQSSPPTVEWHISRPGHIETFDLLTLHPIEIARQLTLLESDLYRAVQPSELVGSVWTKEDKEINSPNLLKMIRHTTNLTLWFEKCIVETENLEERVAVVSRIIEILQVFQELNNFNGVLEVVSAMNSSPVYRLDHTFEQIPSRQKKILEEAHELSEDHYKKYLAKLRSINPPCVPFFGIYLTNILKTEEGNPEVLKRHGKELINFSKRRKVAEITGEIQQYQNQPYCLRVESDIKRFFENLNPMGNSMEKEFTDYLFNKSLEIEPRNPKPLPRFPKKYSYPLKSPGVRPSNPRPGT

Turning to `COc1nc2nc(C)nc(N[C@H](C)c3cccc(C(F)F)c3F)c2cc1C1CCS(=O)(=O)CC1` [Compound 102, (R)-4-(4-((1-(3-(difluoromethyl)-2-fluorophenyl)ethyl)amino)-7-methoxy-2-methylpyrido[2,3-d]pyrimidin-6-yl)tetrahydro-2H-thiopyran 1,1-dioxide], the “DMPK-invitro-PPB (Mouse Unbound) [%]” value in data set [1] is recorded as 2.56%. In addition, the IC50 (in general, the concentration needed to halve the response being measured) is < 100 nM on SOS1 (setting [4]); < 50 nM on SOS1 (setting [5]); ≤ 1000 nM in data set [2] (setting [6]); < 500 nM in data set [2] (setting [7]); ≤ 1000 nM in data set [3] (setting [8]); < 500 nM in data set [3] (setting [9]).

Consider `COc1nc2nc(C)nc(N[C@H](C)c3cccc(C(F)F)c3F)c2cc1N1CCN(C)CC1` [Compound 103, (R)—N-(1-(3-(difluoromethyl)-2-fluorophenyl)ethyl)-7-methoxy-2-methyl-6-(4-methylpiperazin-1-yl)pyrido[2,3-d]pyrimidin-4-amine], for which the “DMPK-invitro-PPB (Mouse Unbound) [%]” value in data set [1] was found to be 5.15%. Further, the IC50 is < 100 nM at SOS1 (setting [4]) and < 500 nM in data set [2] (setting [7]).

As for `COc1nc2nc(C)nc(N[C@H](C)c3cccc(C(F)F)c3F)c2cc1N1CCN(C(C)C)CC1` [Compound 109, (R)-N-(1-(3-(difluoromethyl)-2-fluorophenyl)ethyl)-6-(4-isopropylpiperazin-1-yl)-7-methoxy-2-methylpyrido[2,3-d] pyrimidin-4-amine], the “DMPK-invitro-PPB (Mouse Unbound) [%]” value in data set [1] stood at 3.51%. Moreover, the IC50 at SOS1 (setting [4]) was < 100 nM; on SOS1 (setting [5]), < 50 nM; in data set [2] (setting [6]), ≤ 1000 nM; in data set [2] (setting [7]), < 500 nM; in data set [3] (setting [8]), ≤ 1000 nM; in data set [3] (setting [9]) it was < 500 nM.

`COc1nc2nc(C)nc(N[C@H](C)c3cccc(C(F)(F)F)c3C)c2cc1C1CCS(=O)(=O)CC1` [Compound 118, (R)-4-(7-methoxy-2-methyl-4-((1-(2-methyl-3-(trifluoromethyl)phenyl)ethyl)amino)pyrido[2,3-d]pyrimidin-6-yl)tetrahydro-2H-thiopyran 1,1-dioxide]: the “DMPK-invitro-PPB (Mouse Unbound) [%]” value in data set [1] amounted to 0.31%. Moreover, the half-maximal inhibitory concentration (IC50) on SOS1 (setting [5]) is < 50 nM; in data set [2] (setting [6]) it was ≤ 1000 nM; in data set [2] (setting [7]), < 500 nM; in data set [3] (setting [8]), ≤ 1000 nM; in data set [3] (setting [9]), < 500 nM.

For `COc1nc2nc(C)nc(N[C@H](C)c3cccc(C(F)(F)F)c3F)c2cc1C1CCS(=O)(=O)CC1` [Compound 120, (R)-4-(4-((1-(2-fluoro-3-(trifluoromethyl)phenyl)ethyl)amino)-7-methoxy-2-methylpyrido[2,3-d]pyrimidin-6-yl)tetrahydro-2H-thiopyran 1,1-dioxide], the “DMPK-invitro-PPB (Mouse Unbound) [%]” value in data set [1] is listed as 0.73%. The half-maximal inhibitory concentration (IC50) at SOS1 (setting [4]) is < 100 nM; at SOS1 (setting [5]), < 50 nM; in data set [2] (setting [6]) it was ≤ 1000 nM; in data set [2] (setting [7]), < 500 nM; in data set [3] (setting [8]), ≤ 1000 nM; in data set [3] (setting [9]) it was < 500 nM.

Turning to `COc1nc2nc(C)nc(N[C@H](C)c3cccc(C(F)F)c3F)c2cc1N1CCS(=O)(=O)CC1` [Compound 131, (R)-4-(4-((1-(3-(difluoromethyl)-2-fluorophenyl)ethyl)amino)-7-methoxy-2-methylpyrido[2,3-d]pyrimidin-6-yl)thiomorpholine 1,1-dioxide], the “DMPK-invitro-PPB (Mouse Unbound) [%]” value in data set [1] came out at 4.01%. The 50% inhibitory concentration (IC50) on SOS1 (setting [4]) was < 100 nM; on SOS1 (setting [5]), < 50 nM; in data set [2] (setting [6]) it was ≤ 1000 nM; in data set [2] (setting [7]) it was < 500 nM; in data set [3] (setting [8]), ≤ 1000 nM; in data set [3] (setting [9]), < 500 nM.

Consider `COc1nc2ncnc(N[C@H](C)c3cccc(C(F)F)c3F)c2cc1C1CCS(=O)(=O)CC1` [Compound 146, (R)-4-(4-((1-(3-(difluoromethyl)-2-fluorophenyl)ethyl)amino)-7-methoxypyrido[2,3-d]pyrimidin-6-yl)tetrahydro-2H-thiopyran 1,1-dioxide], for which the “DMPK-invitro-PPB (Mouse Unbound) [%]” value in data set [1] worked out at 3.58%. The half-maximal inhibitory concentration (IC50) on SOS1 (setting [4]) was < 100 nM; on SOS1 (setting [5]), < 50 nM; in data set [2] (NCI-H1975, 3D proliferation, about 5 days, read-out: Bio-Cell-Prolif-3D (H1975 IC50)), ≤ 1000 nM; in data set [2] (NCI-H1975, EGFR T790M L858R, read-out: IC50 in inhibiting growth of NCI-H1975 cell line) it was < 500 nM; in data set [3] (setting [9]), < 500 nM; in data set [3] (MIA PaCa-2, 3D proliferation, about 5 days, read-out: Bio-Cell-Prolif-3D (MiaPaca2 IC50)) it was ≤ 1000 nM.

In the case of `COc1nc2nc(C)nc(N[C@H](C)c3cccc(C(C)(F)F)c3F)c2cc1C1CCS(=O)(=O)CC1` [Compound 150, (R)-4-(4-((1-(3-(1,1-difluoroethyl)-2-fluorophenyl)ethyl)amino)-7-methoxy-2-methylpyrido[2,3-d]pyrimidin-6-yl)tetrahydro-2H-thiopyran 1,1-dioxide], the “DMPK-invitro-PPB (Mouse Unbound) [%]” value in data set [1] amounted to 2.65%. Further, the 50% inhibitory concentration (IC50) was < 50 nM on SOS1 (setting [5]); ≤ 1000 nM in data set [2] (setting [6]); < 500 nM in data set [2] (setting [7]); ≤ 1000 nM in data set [3] (setting [8]); < 500 nM in data set [3] (setting [9]).

`COc1nc2ncnc(N[C@H](C)c3cccc(C(F)F)c3F)c2cc1N1CCN(C)CC1` [Compound 156, (R)-N-(1-(3-(difluoromethyl)-2-fluorophenyl)ethyl)-7-methoxy-6-(4-methylpiperazin-1-yl)pyrido[2,3-d] pyrimidin-4-amine]: the “DMPK-invitro-PPB (Mouse Unbound) [%]” value in data set [1] is 14.53%. In addition, the 50% inhibitory concentration (IC50) is < 100 nM at SOS1 (setting [4]); < 50 nM on SOS1 (setting [5]); ≤ 1000 nM in data set [2] (setting [6]); < 500 nM in data set [2] (setting [7]); ≤ 1000 nM in data set [3] (setting [8]); < 500 nM in data set [3] (setting [9]).

For the compound `COc1nc2ncnc(N[C@H](C)c3cccc(C(F)(F)F)c3F)c2cc1N1CCN(C(C)C)CC1` [Compound 159, (R)-N-(1-(2-fluoro-3-(trifluoromethyl)phenyl)ethyl)-6-(4-isopropylpiperazin-1-yl)-7-methoxypyrido[2,3-d] pyrimidin-4-amine], in data set [1], the “DMPK-invitro-PPB (Mouse Unbound) [%]” value was 3.43%. Also, the IC50 on SOS1 (setting [4]) was < 100 nM; at SOS1 (setting [5]), < 50 nM; in data set [2] (setting [6]), ≤ 1000 nM; in data set [2] (setting [7]), < 500 nM; in data set [3] (setting [8]), ≤ 1000 nM; in data set [3] (setting [9]) it was < 500 nM.

As to `COc1nc2ncnc(N[C@H](C)c3cccc(C(F)(F)F)c3C)c2cc1N1CCN(C2CCOCC2)CC1` [Compound 160, (R)-7-methoxy-N-(1-(2-methyl-3-(trifluoromethyl)phenyl)ethyl)-6-(4-(tetrahydro-2H-pyran-4-yl)piperazin-1-yl)pyrido[2,3-d]pyrimidin-4-amine], the “DMPK-invitro-PPB (Mouse Unbound) [%]” value in data set [1] was determined as 1.05%. In addition, the IC50 on SOS1 (setting [4]) was < 100 nM; on SOS1 (setting [5]), < 50 nM; in data set [2] (setting [6]), ≤ 1000 nM; in data set [2] (setting [7]), < 500 nM; in data set [3] (setting [8]) it was ≤ 1000 nM.

As for `COc1nc2ncnc(N[C@H](C)c3cccc(C(F)(F)F)c3F)c2cc1C1CCN(C(C)C)CC1` [Compound 162, (R)-N-(1-(2-fluoro-3-(trifluoromethyl)phenyl)ethyl)-6-(1-isopropylpiperidin-4-yl)-7-methoxypyrido[2,3-d] pyrimidin-4-amine], the “DMPK-invitro-PPB (Mouse Unbound) [%]” value in data set [1] was 2.19%. Besides, the IC50 was < 100 nM on SOS1 (setting [4]); < 50 nM at SOS1 (setting [5]); ≤ 1000 nM in data set [2] (setting [6]); < 500 nM in data set [2] (setting [7]); ≤ 1000 nM in data set [3] (setting [8]).

For the compound `COc1nc2ncnc(N[C@H](C)c3cccc(C(F)(F)F)c3F)c2cc1C1CCN(C2CCOCC2)CC1` [Compound 164, (R)-N-(1-(2-fluoro-3-(trifluoromethyl)phenyl)ethyl)-7-methoxy-6-(1-(tetrahydro-2H-pyran-4-yl)piperidin-4-yl)pyrido[2,3-d]pyrimidin-4-amine], the “DMPK-invitro-PPB (Mouse Unbound) [%]” value in data set [1] stood at 1.6%. For the same compound, the IC50 at SOS1 (setting [4]) is < 100 nM; at SOS1 (setting [5]), < 50 nM; in data set [2] (setting [6]), ≤ 1000 nM; in data set [2] (setting [7]) it was < 500 nM; in data set [3] (setting [8]), ≤ 1000 nM; in data set [3] (setting [9]), < 500 nM.

For the compound `COc1nc2nc(C)nc(N[C@H](C)c3cccc(C(F)(F)F)c3C)c2cc1N1CCN(C(C)C)CC1` [Compound 171, (R)-6-(4-isopropylpiperazin-1-yl)-7-methoxy-2-methyl-N-(1-(2-methyl-3-(trifluoromethyl)phenyl)ethyl)pyrido[2,3-d]pyrimidin-4-amine], in data set [1], the “DMPK-invitro-PPB (Mouse Unbound) [%]” value was found to be 0.12%. Besides, the IC50 at SOS1 (setting [4]) is < 100 nM; on SOS1 (setting [5]), < 50 nM; in data set [2] (setting [6]), ≤ 1000 nM; in data set [2] (setting [7]) it was < 500 nM; in data set [3] (setting [8]), ≤ 1000 nM.

For the compound `COc1nc2ncnc(N[C@H](C)c3cccc(C(F)(F)C(C)(C)O)c3)c2cc1N1CCN(C(C)C)CC1` [Compound 202, (R)-1,1-difluoro-1-(3-(1-((6-(4-isopropylpiperazin-1-yl)-7-methoxypyrido [2,3-d]pyrimidin-4-yl)amino)ethyl)phenyl)-2-methylpropan-2-ol], in data set [1], the “DMPK-invitro-PPB (Mouse Unbound) [%]” value was 19.85%. Moreover, the IC50 on SOS1 (setting [4]) was < 100 nM; at SOS1 (setting [5]) it was < 50 nM; in data set [2] (setting [6]), ≤ 1000 nM; in data set [2] (setting [7]), < 500 nM; in data set [3] (setting [8]), ≤ 1000 nM; in data set [3] (setting [9]) it was < 500 nM.
